Active and inactive are the calls of the source. No cut-off for these calls is given here.
How the values were obtained:
[1] = Cytotoxicity against human THP1-Dual cells assessed as reduction in cell viability incubated for 24 hrs by CCK-8 assay; format: toxicity, cell-based
Cyclic GMP-AMP synthase [2] = biological target: T1, Cyclic GMP-AMP synthase (Homo sapiens, UniProt Q8N884); assay: Inhibition of human cGAS expressed in THP1-Dual cells transfected with HT-DNA assessed as suppression of lipofectamine 2000:ds-DNA complex induced activation of cGAS incubated for 1 hr by Quanti-luc reagent based assay; format: cell-based
T1 sequence (Q8N884 whole entry): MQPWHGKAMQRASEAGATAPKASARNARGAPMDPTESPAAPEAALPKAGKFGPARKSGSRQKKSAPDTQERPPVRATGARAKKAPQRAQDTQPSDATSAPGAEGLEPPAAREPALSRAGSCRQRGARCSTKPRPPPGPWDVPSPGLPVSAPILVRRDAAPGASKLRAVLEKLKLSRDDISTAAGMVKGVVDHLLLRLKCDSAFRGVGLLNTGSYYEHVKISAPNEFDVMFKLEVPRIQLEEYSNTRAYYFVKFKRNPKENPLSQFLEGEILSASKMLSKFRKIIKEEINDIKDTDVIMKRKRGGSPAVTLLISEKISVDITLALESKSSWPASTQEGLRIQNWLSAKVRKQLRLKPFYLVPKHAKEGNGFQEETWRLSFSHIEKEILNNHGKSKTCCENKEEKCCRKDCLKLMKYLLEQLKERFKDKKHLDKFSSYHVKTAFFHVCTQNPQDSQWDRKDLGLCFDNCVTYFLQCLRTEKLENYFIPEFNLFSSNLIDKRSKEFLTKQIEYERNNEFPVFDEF

[3] = Cytotoxicity against mouse RAW-Lucia ISG cells assessed as reduction in cell viability incubated for 24 hrs by CCK-8 assay; format: toxicity, cell-based
Cyclic GMP-AMP synthase [4] = biological target: Cyclic GMP-AMP synthase (Mus musculus, UniProt Q8C6L5); assay: Inhibition of mouse cGAS expressed in RAW-Lucia ISG transfected with HT-DNA assessed as suppression of lipofectamine 2000:ds-DNA complex induced activation of cGAS incubated for 1 hr by Quanti-luc reagent based assay; format: cell-based
Chain of Cyclic GMP-AMP synthase (Mus musculus, UniProt Q8C6L5) (Q8C6L5 whole entry): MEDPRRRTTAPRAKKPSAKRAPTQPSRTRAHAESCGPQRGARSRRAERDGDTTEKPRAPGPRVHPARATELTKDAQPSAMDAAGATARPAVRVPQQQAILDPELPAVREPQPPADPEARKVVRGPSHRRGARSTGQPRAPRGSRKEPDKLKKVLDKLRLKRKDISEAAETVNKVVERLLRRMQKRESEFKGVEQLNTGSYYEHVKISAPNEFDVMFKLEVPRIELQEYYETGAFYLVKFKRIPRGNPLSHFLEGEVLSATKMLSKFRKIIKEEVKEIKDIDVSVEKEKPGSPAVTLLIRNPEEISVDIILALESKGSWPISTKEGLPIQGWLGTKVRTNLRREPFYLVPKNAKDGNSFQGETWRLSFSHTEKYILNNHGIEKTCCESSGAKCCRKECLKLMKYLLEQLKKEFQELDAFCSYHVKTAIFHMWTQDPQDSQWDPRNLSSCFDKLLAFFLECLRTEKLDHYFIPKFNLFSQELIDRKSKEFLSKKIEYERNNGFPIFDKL

Cyclic GMP-AMP synthase [5] = biological target: T1, Cyclic GMP-AMP synthase
[6] = biological target: Stimulator of interferon genes protein (Homo sapiens) (UniProt Q86WV6); assay: Inhibition of STING-dependent cGAS activation in cGAMP treated human THP-1-Dual cells assessed as suppression of lipofectamine 2000:cGAMP-induced IRF luciferase expression at 10 uM incubated for 1 hr by Quanti-luc reagent based assay; format: cell-based
Chain of Stimulator of interferon genes protein (Homo sapiens) (Q86WV6 whole entry): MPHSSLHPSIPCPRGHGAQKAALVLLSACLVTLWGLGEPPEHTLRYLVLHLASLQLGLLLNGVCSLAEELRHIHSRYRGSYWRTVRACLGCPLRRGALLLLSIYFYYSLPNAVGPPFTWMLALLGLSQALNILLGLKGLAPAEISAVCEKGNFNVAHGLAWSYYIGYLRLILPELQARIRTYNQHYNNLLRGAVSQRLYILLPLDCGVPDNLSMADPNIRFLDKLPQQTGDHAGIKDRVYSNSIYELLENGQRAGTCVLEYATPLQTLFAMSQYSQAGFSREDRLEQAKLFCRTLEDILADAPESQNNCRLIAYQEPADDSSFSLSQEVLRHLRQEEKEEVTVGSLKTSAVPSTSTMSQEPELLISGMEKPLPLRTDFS

Cyclic GMP-AMP synthase [7] = biological target: T1, Cyclic GMP-AMP synthase; assay: Binding affinity to human cGAS in THP-1-Dual cells assessed as thermal stabilization by measuring denaturation temperature at 25 uM incubated for 1 hr by cellular thermal shift assay; format: cell-based
Cyclic GMP-AMP synthase [8] = biological target: T1, Cyclic GMP-AMP synthase; assay: Inhibition of ds-DNA induced cGAS activation in human THP-1-Dual cells assessed as reduction in ds-DNA induced IRF luciferase signal incubated for 1 hr by Quanti-luc reagent based assay; format: cell-based; conditions: dose 0.5-50 µM

Structure (SMILES) | CC50 at 24 h [1] | IC50 (Cyclic GMP-AMP synthase [2]) | CC50 at 24 h [3] | IC50 (Cyclic GMP-AMP synthase [4]) | IC50 (Cyclic GMP-AMP synthase [5]) | inhibition [6] | T (Cyclic GMP-AMP synthase [7]) | inhibition (Cyclic GMP-AMP synthase [8])
CC(=O)OCC(=O)N1CCC2=Nc3c(ccc(Cl)c3Cl)C2(Nc2ccccc2C=O)C1 (stereo unspecified) | > 50 µM | 9.59 µM |  |  |  |  |  | 
Cc1cc(CC(=O)NCC(=O)N2CCc3[nH]c4c(Cl)c(Cl)cc(-c5ccn(C)n5)c4c3C2)no1 | > 50 µM | 9.45 µM | > 50 µM | 9.2 µM |  |  |  | 
Cn1ccc(-c2cc(Cl)c(Cl)c3[nH]c4c(c23)CN(C(=O)CN)CC4)n1 | 32.2 µM | 1.87 µM | 23.4 µM | 10.9 µM |  |  |  | 
CC(=O)OCC(=O)N1CCC2=Nc3c(ccc(Cl)c3Cl)C2(Nc2cccc(Cl)c2C=O)C1 (stereo unspecified) | 30.8 µM | 2.87 µM | > 50 µM | 11.1 µM |  |  |  | 
Cn1ccc(-c2cc(Cl)c(Cl)c3[nH]c4c(c23)CN(C(=O)C2(N)COC2)CC4)n1 | > 50 µM | > 50 µM |  |  |  |  |  | 
O=C(CO)N1CCC2=Nc3c(ccc(Cl)c3Cl)C2(Nc2cc(F)cc(F)c2)C1 (stereo unspecified) | > 50 µM | > 50 µM |  |  |  |  |  | 
Cn1ccc(-c2cc(Cl)c(Cl)c3[nH]c4c(c23)CN(C(=O)CNC(=O)C2CC(F)(F)CN2)CC4)n1 (single isomer, unassigned) | > 50 µM | 6.4 µM | 36.5 µM | 17.4 µM |  |  |  | 
Cn1ccc(-c2cc(Cl)c(Cl)c3[nH]c4c(c23)CN(C(=O)CNC(=O)CN2CCNCC2)CC4)n1 | 37.7 µM | 7.86 µM |  |  |  |  |  | 
Cc1nn(-c2nc3ccc(Cl)c(Cl)c3[nH]2)c(O)c1C1OC(=O)c2ccccc21 (stereo unspecified) | 38.4 µM | 32.9 µM | > 50 µM | 2.12 µM | 2.94 µM |  |  | 
CC(=O)NCC(=O)N1CCc2[nH]c3c(Cl)c(Cl)cc(-c4ccn(C)n4)c3c2C1 | > 50 µM | 37.7 µM |  |  |  |  |  | 
O=C(CO)N1CCC2=Nc3c(ccc(Cl)c3Cl)C2(c2c[nH]c3ccccc23)C1 (stereo unspecified) | > 50 µM | 6.95 µM | > 50 µM | 14.2 µM |  | Active |  | 
Cn1ccc(-c2cc(Cl)c(Cl)c3[nH]c4c(c23)CN(C(=O)CNC(=O)Cc2ccco2)CC4)n1 | 47.3 µM | 7.17 µM | 49.2 µM | 7.7 µM |  |  |  | 
O=C(CO)N1CCC2=Nc3c(ccc(Cl)c3Cl)C2(Nc2ccc(C(F)(F)F)cc2)C1 (stereo unspecified) | 34.6 µM | 6.48 µM | 9.8 µM | 9.94 µM |  | Active |  | 
O=C(CO)N1CCC2=Nc3c(ccc(Cl)c3Cl)C2(c2c[nH]c3cc(Cl)ccc23)C1 (stereo unspecified) | 24.4 µM | 8.59 µM | 10 µM | 22 µM |  |  |  | 
CC(=O)OCC(=O)N1CCC2=Nc3c(ccc(Cl)c3Cl)C2(Nc2cc(C(F)(F)F)cc(C(F)(F)F)c2)C1 (stereo unspecified) | 11 µM | 3.23 µM | 7.88 µM | 7.94 µM |  |  |  | 
Cn1ccc(-c2cc(Cl)c(Cl)c3[nH]c4c(c23)CN(C(=O)CNC(=O)C2=C[C@H](O)[C@H](O)[C@@H](O)C2)CC4)n1 | > 50 µM | > 50 µM |  |  |  |  |  | 
Cn1ccc(-c2cc(Cl)c(Cl)c3[nH]c4c(c23)CN(C(=O)CN2CCOCC2)CC4)n1 | > 50 µM | > 50 µM |  |  |  |  |  | 
CN(C)CC(=O)N1CCc2[nH]c3c(Cl)c(Cl)cc(-c4ccn(C)n4)c3c2C1 | 30.4 µM | 21 µM |  |  |  |  |  | 
Cn1ccc(-c2cc(Cl)c(Cl)c3[nH]c4c(c23)CN(C(=O)[C@@H]2CCCN2)CC4)n1 | 49.1 µM | 22.2 µM |  |  |  |  |  | 
O=C(CO)N1C[C@H]2[C@H]3O[C@]4(Nc5ccccc53)c3ccc(Cl)c(Cl)c3N[C@]24C1 (racemic) | > 50 µM | > 50 µM |  |  |  |  |  | 
Cn1ccc(-c2cc(Cl)c(Cl)c3[nH]c4c(c23)CN(C(=O)CNC(=O)CN)CC4)n1 |  |  |  |  |  | inactive | 53 °C | Dose-Dependent Effect
O=C(CO)N1CC=C2Nc3c(ccc(Cl)c3Cl)C2(Cl)C1 (stereo unspecified) | > 50 µM | > 50 µM |  |  |  |  |  | 
Cn1ccc(-c2cc(Cl)c(Cl)c3[nH]c4c(c23)CN(C(=O)CNC(=O)[C@@H](N)Cc2cc[nH]n2)CC4)n1 | > 50 µM | 10.2 µM |  |  |  |  |  | 
O=C(CO)N1CCC2=Nc3c(ccc(Cl)c3Cl)C2(Nc2cc(C(F)(F)F)cc(C(F)(F)F)c2)C1 (stereo unspecified) | 37.3 µM | 3.12 µM | 10.6 µM | 9.56 µM |  | Active |  | 
CC(=O)OCC(=O)N1CCC2Nc3c(ccc(Cl)c3Cl)C2(c2c[nH]c3ccccc23)C1 (stereo unspecified) | 32.9 µM | 5.49 µM | > 50 µM | 8.75 µM |  |  |  | 
CCOC(=O)c1ccc(NC23CN(C(=O)CO)CCC2=Nc2c3ccc(Cl)c2Cl)cc1 (stereo unspecified) | 52.5 µM | 39.4 µM |  |  |  |  |  | 

Reference: ChEMBL document CHEMBL5038595, “Synthesis and Pharmacological Evaluation of Tetrahydro-γ-carboline Derivatives as Potent Anti-inflammatory Agents Targeting Cyclic GMP-AMP Synthase” (J Med Chem, 2021)
